These results are taken from ChEMBL document CHEMBL1201862, “PubChem BioAssay data set” (2004).

Each structure is given as a SMILES string. Counter-ions that a name gives are not always drawn.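 Values below derive from 48-hour exposures of cells grown in 96-well plates, with endpoints linearly interpolated between the two concentrations bracketing the appropriate inhibition level. GI50 is the concentration that inhibits growth by half.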 The source made the active and inactive calls. Cut-off read from the data, not from the text of the source: active = GI50 up to about 1.1 µM and inactive = higher. Some results are limits rather than exact numbers.

Test in all cases: NCI anticancer screen, dose series, 48 h
Test [1] concerns SK-OV-3.
Test [2] deals with 786-0.
The test system of test [3] is ACHN.
The test system of test [4] is MOLT-4.
Test [5] concerns SK-MEL-2.
In test [6] the test system is UACC-257.
Test [7] has as its system NCI/ADR-RES.
Test [8] relates to UO-31.
For test [9], the system named is U-251.
Test [10] deals with HOP-92.
Test [11] concerns NCI-H522.
Test [12] has as its system SF-539.
The subject of test [13] is NCI-H23.
Test [14] deals with SF-295.
Test [15] concerns A498.
In test [16] the test system is MDA-MB-231.
Test [17] deals with SN12C.
The subject of test [18] is SNB-75.
In test [19] the test system is NCI-H226.
Test [20] has as its system DU-145.

Turning to `CC[C@]12CN3CCc4c([nH]c5ccccc45)[C@@](C(=O)OC)(c4cc5c(cc4OC)N(C)[C@H]4[C@@](O)(C(=O)OC)[C@H](OC(C)=O)[C@]6(CC)C=CCN7CC[C@]54[C@@H]76)CC(C3)[C@H]1O2` (stereo not given in full) [VINLEUROSINE SULFATE], the GI50 in [1] was 120 nM (active); in [2], < 10 nM (active); in test [3], 1330 nM (inactive); in [4], < 15.6 nM (active); in [5], 96.8 nM (active); in test [6] it was 3240 nM (inactive). The GI50 in [7] was 16100 nM (inactive); in test [8], 5570 nM (inactive); in test [9], < 17.9 nM (active); in test [10] it was 8130 nM (inactive); in [11], < 10 nM (active); in test [12], 39 nM (active). For the same molecule, the GI50 in [13] is 126 nM (active); in [14], 40.1 nM (active); in test [15], 863 nM (active); in test [16] it was 291 nM (active); in [17], < 10 nM (active); in test [18], 71.6 nM (active). In addition, the GI50 in test [19] is 221 nM (active); in test [20], < 10 nM (active).
